# Several values for one entry are separate records, joined by “and”; a condition that tells them apart may be missing. Equal values may be shown once.
# Assays:
# Assay type in all cases: cell-based, E. coli XL10-Gold
# [1] = tested on: BjaRS107R (B0033|ATG) receiver cells; experiment: IV-HSL biosynthesis by BjaI-expressing synthetic cells (GUVs), quantified with receiver cells; settings: 10 nM IV-HSL control, Dilution -, sheet 4d
# [2] = tested on: BjaRS107R (B0033|ATG) receiver cells; experiment: BjaR receiver cell AHSL dose-response (gfp reporter, plate reader); settings: for EC50: IV-HSL-activated gfp expression; for Mean normalised fluorescence / Normalised fluorescence / GFP: sheet 3d; for Normalised fluorescence / GFP: Expt1-3; for GFP: raw fluorescence ex 488/em 510 nm
# From the text: (§1) These findings are consistent with the predicted translation initiation rates of the respective sequences—translation from the BBa_B0033 RBS provides 1% of protein yield compared to the BBa_B0034 RBS, just as an CTG start codon provides 1% of the protein yield compared to an ATG start codon[30],[31]. This also offers support as to why the ON-state gfp expression level increased in variants with a tighter OFF-state; more cellular resources were available for GFP synthesis when comparatively fewer were allocated to BjaR synthesis. To elucidate the impact of the S107R variant on gene circuit performance, we introduced the S107R variant alone back into the bjaRWT gene, in the context of the BBa_B0033 RBS background.
# In addition to quantifying how these BjaR receiver cells responded to their branched, cognate ligand, we also sought to determine whether the BjaR receiver cells could be activated by structurally dissimilar AHSLs involved in the LuxI/R, EsaI/R, LasI/R and RhlI/R QS systems previously used in synthetic cell communication[5],[7],[8]. To this end, we measured the fluorescence of BjaR receiver cells grown in the presence of their activators, 3OC6-HSL, 3OC12-HSL and C4-HSL, respectively (Supplementary Fig. 13a).
# (§2) The BjaR reporter plasmids were retransformed into E. coli XL10-Gold cells for each experiment. A single colony was used to inoculate 5 ml LB + Amp media and incubated at 37 °C, 225 r.p.m. overnight. Overnight cultures were diluted 1/250 or 1/500 in 5 ml M9 minimal media + Amp and incubated at 37 °C, 225 r.p.m. for 3 h and 45 min (until OD600 = ~0.075). Cultures were diluted down to OD600 = 0.05 with M9 minimal media + Amp, and 200 µl was added to wells of a 96-well plate containing 1 µl IV-HSL dissolved in DMSO or 1 µl BjaI CFPS reactions (IV-HSL concentrations obtained from serial dilution from 63.2 µM to 632 pM; final DMSO concentration = 0.5%). Cells were incubated at 37 °C, 800 r.p.m., in a thermomixer with a heated lid for 4 h. Fluorescence and OD600 were measured in a Tecan M1000 infinite plate reader (excitation, 488 nm; emission, 510 nm; bandwidth, 5 nm; gain, 101 and z position, 21,311 µm). The dose–response curves were fitted to the function indicated by Eq. (1), where a = maximal fluorescence output, b = basal fluorescence output, X = concentration of AHSL, GFP = fluorescence at the given condition, EC50 = AHSL at 50% maximal fluorescence output and h = hill coefficient. EC50 and h were derived using the nonlinear regression model based on Eq. (1), in MATLAB. A summary of the dose–response data is available in Supplementary Table 1.1 GFP=b+a−b/1+10^logEC50−X×h
# [3] = tested on: BjaRWT (B0034|CTG) receiver cells; experiment: as above
# From the text: as §1, §2
smiles,measurement,setting,value
"CC(C)CC(=O)N[C@H]1CCOC1=O [IV-HSL, N-isovaleryl-L-homoserine lactone]",Mean normalised fluorescence,[1],190979
same,Normalised fluorescence,[1]; Expt1-3,175106 and 224036 and 173796
same,GFP,"[1]; raw fluorescence ex 488/em 510 nm, Expt1-3",33963 and 48451 and 56546
same,EC50,[2]; Escherichia coli,0.63 ± 0.1 nM
same,EC50,[2],0.6 nM
same,Mean normalised fluorescence,[2]; Log([ASHL]) -6.5,211248
same,Normalised fluorescence,[2]; Log([ASHL]) -6.5,231337 and 193994 and 208414
same,GFP,[2]; Log([ASHL]) -6.5,43152 and 44129 and 37797
same,Mean normalised fluorescence,[2]; Log([ASHL]) -7,191564
same,Normalised fluorescence,[2]; Log([ASHL]) -7,219307 and 167549 and 187835
same,GFP,[2]; Log([ASHL]) -7,41241 and 42932 and 36852
same,Mean normalised fluorescence,[2]; Log([ASHL]) -7.5,185367
same,Normalised fluorescence,[2]; Log([ASHL]) -7.5,205336 and 163229 and 187535
same,GFP,[2]; Log([ASHL]) -7.5,40980 and 43296 and 37356
same,Mean normalised fluorescence,[2]; Log([ASHL]) -8,184023
same,Normalised fluorescence,[2]; Log([ASHL]) -8,162110 and 183388 and 206570
same,GFP,[2]; Log([ASHL]) -8,43713 and 37962 and 41577
same,Mean normalised fluorescence,[2]; Log([ASHL]) -8.5,162300
same,Normalised fluorescence,[2]; Log([ASHL]) -8.5,147294 and 166971 and 172634
same,GFP,[2]; Log([ASHL]) -8.5,45027 and 40097 and 44703
same,Mean normalised fluorescence,[2]; Log([ASHL]) -9,128394
same,Normalised fluorescence,[2]; Log([ASHL]) -9,124444 and 123486 and 137251
same,GFP,[2]; Log([ASHL]) -9,38352 and 35601 and 39674
same,Mean normalised fluorescence,[2]; Log([ASHL]) -9.5,61565.3
same,Normalised fluorescence,[2]; Log([ASHL]) -9.5,61061.7 and 58710.4 and 64923.7
same,GFP,[2]; Log([ASHL]) -9.5,18880 and 16008 and 17944
same,Mean normalised fluorescence,[2]; Log([ASHL]) -10,14778.4
same,Normalised fluorescence,[2]; Log([ASHL]) -10,13513.8 and 15594 and 15227.4
same,GFP,[2]; Log([ASHL]) -10,4242 and 4261 and 4330
same,Mean normalised fluorescence,[2]; Log([ASHL]) -10.5,3859.05
same,Normalised fluorescence,[2]; Log([ASHL]) -10.5,3719.9 and 3832.44 and 4024.82
same,GFP,[2]; Log([ASHL]) -10.5,1247 and 1149 and 1212
same,Mean normalised fluorescence,[2]; Log([ASHL]) -11,2518.58
same,Normalised fluorescence,[2]; Log([ASHL]) -11,2198.08 and 2463.87 and 2893.8
same,GFP,[2]; Log([ASHL]) -11,781 and 756 and 889
same,Mean normalised fluorescence,[2]; Log([ASHL]) -11.5,1640.38
same,Normalised fluorescence,[2]; Log([ASHL]) -11.5,1511.18 and 1789.62 and 1620.34
same,GFP,[2]; Log([ASHL]) -11.5,546 and 584 and 517
same,sensitivity to IV-HSL relative to BjaRWT (B0033|ATG),[2]; more sensitive than BjaRWT (B0033|ATG),> 6 ×
same,fold activation of gene expression (activation range),[2]; with vs without IV-HSL,135 fold
same,EC50,"[3]; Escherichia coli, IV-HSL-activated gfp expression",2.68 ± 0.48 nM
same,hill coefficient,[3]; IV-HSL dose-response curve,1.41
same,GFP,[3]; Log([ASHL]) -6.5,43330 and 36104 and 38058
same,Mean normalised fluorescence,[3]; Log([ASHL]) -6.5,201726
same,Normalised fluorescence,[3]; Log([ASHL]) -6.5,210214 and 194525 and 200438
same,GFP,[3]; Log([ASHL]) -7,48602 and 34441 and 36003
same,Mean normalised fluorescence,[3]; Log([ASHL]) -7,195635
same,Normalised fluorescence,[3]; Log([ASHL]) -7,221814 and 183269 and 181822
same,GFP,[3]; Log([ASHL]) -7.5,42248 and 34562 and 36913
same,Mean normalised fluorescence,[3]; Log([ASHL]) -7.5,179671
same,Normalised fluorescence,[3]; Log([ASHL]) -7.5,188397 and 176029 and 174588
same,GFP,[3]; Log([ASHL]) -8,35155 and 35886 and 43108
same,Mean normalised fluorescence,[3]; Log([ASHL]) -8,165401
same,Normalised fluorescence,[3]; Log([ASHL]) -8,168235 and 168127 and 159840
same,GFP,[3]; Log([ASHL]) -8.5,36208 and 37675 and 33945
same,Mean normalised fluorescence,[3]; Log([ASHL]) -8.5,139606
same,Normalised fluorescence,[3]; Log([ASHL]) -8.5,151871 and 150220 and 116729
same,Mean normalised fluorescence,[3]; Log([ASHL]) -9,82973.4
same,Mean normalised fluorescence,[3]; Log([ASHL]) -9.5,25740.3
same,Mean normalised fluorescence,[3]; Log([ASHL]) -10,6739.8
same,GFP,[3]; Log([ASHL]) -10.5,896 and 846 and 722
same,Mean normalised fluorescence,[3]; Log([ASHL]) -10.5,2692.26
same,Normalised fluorescence,[3]; Log([ASHL]) -10.5,2989.77 and 2763.44 and 2323.58
same,GFP,[3]; Log([ASHL]) -11,668 and 631 and 690
same,Mean normalised fluorescence,[3]; Log([ASHL]) -11,2167.6
same,Normalised fluorescence,[3]; Log([ASHL]) -11,2233.16 and 2007.95 and 2261.7
same,GFP,[3]; Log([ASHL]) -11.5,630 and 671 and 595
same,Mean normalised fluorescence,[3]; Log([ASHL]) -11.5,2035.58
same,Normalised fluorescence,[3]; Log([ASHL]) -11.5,2037.65 and 2202.61 and 1866.48

# From PMC10449621, “Engineering cellular communication between light-activated synthetic cells and bacteria” (Nature Chemical Biology, 2023)
